Source: ChEMBL document CHEMBL2331217, “Evolvosides C–E, flavonol-4'-O-triglycosides from evolvulus alsinoides and their anti-stress activity [corrected]” (2013)

Experiments:
Type in all cases: functional
Rattus norvegicus [1] = assay: Anti-stress activity in Sprague-Dawley rat assessed as change in acute stress-induced plasma creatine kinase level at 40 mg/kg, po qd for 3 days prior to acute stress induction measured after 150 mins (reference value: 1018 +/- 31.43 mg/dl)
Rattus norvegicus [2] = assay: Anti-stress activity in Sprague-Dawley rat assessed as change in acute stress-induced plasma corticosterone level at 40 mg/kg, po qd for 3 days prior to acute stress induction measured after 150 mins by HPLC/UV analysis (reference value: 511.2 +/- 23.2 ng/ml)
Rattus norvegicus [3] = assay: Anti-stress activity in Sprague-Dawley rat assessed as change in acute stress-induced adrenal gland weight at 40 mg/kg, po qd for 3 days prior to acute stress induction measured after 150 mins (reference value: 10.2 +/- 0.84 mg/kg)
Rattus norvegicus [4] = assay: Anti-stress activity in Sprague-Dawley rat assessed as change in acute stress-induced plasma glucose level at 40 mg/kg, po qd for 3 days prior to acute stress induction measured after 150 mins (reference value: 154.7 +/- 4.38 mg/dl)

## C[C@@H]1O[C@@H](OC[C@H]2O[C@@H](Oc3ccc(-c4oc5cc(O)cc(O)c5c(=O)c4O)cc3)[C@H](O)[C@@H](O)[C@@H]2O)[C@H](O[C@@H]2O[C@H](CO)[C@@H](O)[C@H](O)[C@H]2O)[C@H](O)[C@H]1O [EVOLVOSIDE C]
Rattus norvegicus [1]
  Activity: 385.3 mg/dL
Rattus norvegicus [2]
  Activity: 233.3 ng/mL
Rattus norvegicus [3]
  Activity: 7.11 mg/kg
Rattus norvegicus [4]
  Activity: 80.17 mg/dL

## COc1cc(OC)c2c(=O)c(O)c(-c3ccc(O[C@@H]4O[C@H](CO[C@@H]5O[C@@H](C)[C@H](O)[C@@H](O)[C@H]5O[C@@H]5O[C@H](CO)[C@@H](O)[C@H](O)[C@H]5O)[C@@H](O)[C@H](O)[C@H]4O)cc3)oc2c1 [EVOLVOSIDE E]
Rattus norvegicus [1]
  Activity: 413.7 mg/dL
Rattus norvegicus [2]
  Activity: 252.6 ng/mL

## C[C@@H]1O[C@@H](OC[C@H]2O[C@@H](Oc3ccc(-c4oc5cc(O)cc(O)c5c(=O)c4O)cc3)[C@H](O)[C@@H](O)[C@@H]2O)[C@H](O)[C@H](O)[C@H]1O
Rattus norvegicus [1]
  Activity: 521.4 mg/dL
Rattus norvegicus [2]
  Activity: 239.2 ng/mL
Rattus norvegicus [3]
  Activity: 8.47 mg/kg
Rattus norvegicus [4]
  Activity: 105.13 mg/dL

## O=c1cc(-c2ccc(O)cc2)oc2c([C@@H]3O[C@H](CO)[C@@H](O)[C@H](O)[C@H]3O)c(O)cc(O)c12
Rattus norvegicus [1]
  Activity: 822 mg/dL
Rattus norvegicus [2]
  Activity: 439 ng/mL
Rattus norvegicus [3]
  Activity: 9.78 mg/kg
Rattus norvegicus [4]
  Activity: 92.1 mg/dL

## COc1cc(O)c2c(=O)c(O)c(-c3ccc(O[C@@H]4O[C@H](CO[C@@H]5O[C@@H](C)[C@H](O)[C@@H](O)[C@H]5O[C@@H]5O[C@H](CO)[C@@H](O)[C@H](O)[C@H]5O)[C@@H](O)[C@H](O)[C@H]4O)cc3)oc2c1 [EVOLVOSIDE D]
Rattus norvegicus [1]
  Activity: 405.4 mg/dL
Rattus norvegicus [2]
  Activity: 241.7 ng/mL
Rattus norvegicus [3]
  Activity: 8.23 mg/kg
Rattus norvegicus [4]
  Activity: 95.13 mg/dL

## O=c1c(O)c(-c2ccc(O[C@@H]3O[C@H](CO)[C@@H](O)[C@H](O)[C@H]3O[C@@H]3O[C@H](CO)[C@@H](O)[C@H](O)[C@H]3O)cc2)oc2cc(O)cc(O)c12
Rattus norvegicus [1]
  Activity: 1078 mg/dL
Rattus norvegicus [2]
  Activity: 458.2 ng/mL
Rattus norvegicus [3]
  Activity: 10.91 mg/kg
Rattus norvegicus [4]
  Activity: 113.1 mg/dL
